Reference: US20240116877A1, “KIT KINASE INHIBITORS AND METHODS OF USE THEREOF” (Deciphera Pharmaceuticals, LLC, priority 2021, published 2024)
Like-named read-outs stand apart in the source and are kept apart here.

How the values were obtained:
GIST 430 cells = assay: GIST 430 Cell Proliferation Assay (resazurin); format: cell-based; conditions: Homo sapiens; GIST430 cell proliferation
In short: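 Five thousand cells per well were exposed to serially diluted compound in complete growth medium for 115 h at 37 degrees Celsius, 5% CO2. Resazurin was then added for a further 5 h, fluorescence read at 540 nm excitation/600 nm emission, and IC50 values calculated.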

c-KIT kinase (uKIT) = c-KIT kinase (uKIT) (Homo sapiens (Human), UniProt P10721); assay: Biochemical Assay for uKIT (coupled pyruvate kinase/lactate dehydrogenase assay); conditions: Inhibition of biochemical activity of uKIT kinase; 1 mM ATP
In short: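 IC50 from percent inhibition of reaction rate over 2-3 h, relative to no-compound and known-inhibitor controls. KIT enzyme (16 nM or 4.36 nM, two sequences) ran with 1 mM ATP and 0.7 mg/mL PE4Y in Tris pH 7.5, 30° C; ATP turnover coupled to NADH loss at 340 nm.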

Ba/F3 KIT mutant cells = assay: Ba/F3 mutant KIT Cell Proliferation Assays (resazurin); format: cell-based; conditions: Mus musculus, BaF3
In short: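 IC50 values come from resazurin fluorescence (ex 540, em 600) after 5 h dye exposure, added as a 440 μM solution. Cells were IL-3-independent Ba/F3 expressing mutant KIT from a lentiviral vector, puromycin-selected.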

[1] = Ba/F3 KIT AYdup-V654A mutant cell proliferation, read-out: AYdup-V654A IC50
[2] = Ba/F3 KIT exon11del-V654A mutant cell proliferation, read-out: exon11del-V654A IC50
[3] = Ba/F3 KIT exon11del-Y823D mutant cell proliferation, read-out: exon11del-Y823D IC50

Sequence of c-KIT kinase (uKIT) (P10721 other isoform, or with tags, fused parts or gaps): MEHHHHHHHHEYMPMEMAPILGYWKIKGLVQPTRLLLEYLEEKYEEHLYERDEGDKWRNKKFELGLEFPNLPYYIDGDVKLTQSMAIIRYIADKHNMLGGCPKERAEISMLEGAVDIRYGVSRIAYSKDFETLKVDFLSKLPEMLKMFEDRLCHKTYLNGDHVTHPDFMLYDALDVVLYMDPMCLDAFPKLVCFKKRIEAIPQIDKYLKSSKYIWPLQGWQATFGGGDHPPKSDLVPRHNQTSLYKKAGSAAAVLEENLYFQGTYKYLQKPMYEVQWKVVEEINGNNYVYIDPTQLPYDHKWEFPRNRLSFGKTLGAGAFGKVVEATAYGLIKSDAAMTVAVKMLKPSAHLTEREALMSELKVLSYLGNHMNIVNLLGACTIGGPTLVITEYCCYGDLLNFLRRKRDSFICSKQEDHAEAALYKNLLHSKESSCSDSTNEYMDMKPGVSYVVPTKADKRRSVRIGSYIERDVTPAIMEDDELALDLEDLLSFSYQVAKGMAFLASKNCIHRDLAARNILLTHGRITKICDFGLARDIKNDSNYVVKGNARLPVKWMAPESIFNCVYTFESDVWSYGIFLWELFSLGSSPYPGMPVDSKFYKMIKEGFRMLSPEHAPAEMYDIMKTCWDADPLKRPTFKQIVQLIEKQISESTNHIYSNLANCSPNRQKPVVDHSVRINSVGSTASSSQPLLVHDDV

IC50 (c-KIT kinase (uKIT)) [µM]	IC50 (Ba/F3 KIT mutant cells; [1]) [µM]	IC50 (Ba/F3 KIT mutant cells; [2]) [µM]	IC50 (Ba/F3 KIT mutant cells; [3]) [µM]	IC50 (Ba/F3 KIT mutant cells; Ba/F3 KIT AYdup mutant cell proliferation, read-out: AYdup IC50) [µM]	IC50 (Ba/F3 KIT mutant cells; Ba/F3 KIT AYdup-D816G mutant cell proliferation, read-out: AYdup-D816G IC50) [µM]	SMILES	IC50 (GIST 430 cells) [µM]
0.01 to 0.1	0.01 to 0.1	0.01 to 0.1	0.01 to 0.1	–	–	COCCOc1cc(F)c2c(Nc3ccc(NC(=O)CC(=O)N4CCCC[C@@H]4C(F)(F)F)cc3)ncnc2c1 [Example 170]	0.01 to 0.1
0.01 to 0.1	0.01 to 0.1	0.01 to 0.1	≤ 0.01	–	–	COCCOc1cc(F)c2c(Nc3ccc(NC(=O)CC(=O)N4CCCC[C@H]4C(F)(F)F)cc3)ncnc2c1 [Example 171]	0.01 to 0.1
0.01 to 0.1	0.01 to 0.1	0.01 to 0.1	0.01 to 0.1	–	–	CN1CC[C@H](Oc2cc(F)c3c(Nc4ccc(NC(=O)NCCC(C)(C)F)cc4)ncnc3c2)C1 [Example 172]	0.01 to 0.1
≤ 0.01	0.01 to 0.1	0.01 to 0.1	0.01 to 0.1	–	–	CN1CC[C@@H](Oc2cc(F)c3c(Nc4ccc(NC(=O)NCCC(C)(C)F)cc4)ncnc3c2)C1 [Example 173]	0.01 to 0.1
≤ 0.01	0.01 to 0.1	0.01 to 0.1	0.01 to 0.1	–	–	CC(C)(F)CCNC(=O)Nc1ccc(Nc2ncnc3cc(OC4CCC4)cc(F)c23)cc1 [Example 174]	0.1 to 1
≤ 0.01	0.01 to 0.1	0.01 to 0.1	0.01 to 0.1	–	–	CC(C)(F)CCNC(=O)Nc1ccc(Nc2ncnc3cc(OC4COC4)cc(F)c23)cc1 [Example 175]	0.01 to 0.1
0.01 to 0.1	0.01 to 0.1	0.1 to 1	0.01 to 0.1	0.01 to 0.1	0.01 to 0.1	COCCOc1cc(OC)c2c(Nc3ccc(NC(=O)CC(=O)NC4CCCC4)cc3)ncnc2c1 [Example 176]	0.01 to 0.1
0.01 to 0.1	0.01 to 0.1	0.1 to 1	0.1 to 1	–	–	COCCOc1cc(OC)c2c(Nc3ccc(NC(=O)CC(=O)NC(C)(C)C)cc3)ncnc2c1 [Example 177]	0.01 to 0.1
0.1 to 1	0.1 to 1	0.1 to 1	0.1 to 1	–	–	COCCOc1cc(F)c2c(Nc3ccc(NC(=O)CC(=O)N4C[C@@H](C)O[C@@H](C)C4)cc3)ncnc2c1 [Example 179]	0.1 to 1
≤ 0.01	0.01 to 0.1	0.01 to 0.1	≤ 0.01	–	–	COCCOc1cc(OC)c2c(Nc3ccc(NC(=O)NCCC(C)(C)F)cc3)ncnc2c1 [Example 181]	0.01 to 0.1
0.01 to 0.1	0.01 to 0.1	0.01 to 0.1	0.01 to 0.1	–	–	COCCOc1cc(OC)c2c(Nc3ccc(NC(=O)NCCC(C)(C)C#N)cc3)ncnc2c1 [Example 182]	0.01 to 0.1
0.01 to 0.1	≤ 0.01	0.01 to 0.1	0.01 to 0.1	–	–	COCCOc1cc(OC)c2c(Nc3ccc(NC(=O)CC(=O)NC4CCC4)cc3)ncnc2c1 [Example 183]	0.01 to 0.1
0.01 to 0.1	≤ 0.01	0.1 to 1	0.1 to 1	–	–	CCN(CC)C(=O)CC(=O)Nc1ccc(Nc2ncnc3cc(OCCOC)cc(F)c23)cc1 [Example 184]	0.01 to 0.1
0.1 to 1	> 1	> 1	> 1	–	–	COCCOc1cc(F)c2c(Nc3ccc(NC(=O)CC(=O)N4CCOCC4)cc3)ncnc2c1 [Example 185]	0.1 to 1
0.1 to 1	> 1	> 1	> 1	–	–	COCCOc1cc(F)c2c(Nc3ccc(NC(=O)CC(=O)N4CCCC4)cc3)ncnc2c1 [Example 186]	> 1
0.1 to 1	0.1 to 1	> 1	> 1	–	–	COCCOc1cc(F)c2c(Nc3ccc(NC(=O)CC(=O)N4CCCCC4)cc3)ncnc2c1 [Example 187]	0.1 to 1
0.01 to 0.1	0.1 to 1	0.1 to 1	0.1 to 1	–	–	COCCOc1cc(F)c2c(Nc3ccc(NC(=O)CC(=O)N4CCCC4C(C)(C)C)cc3)ncnc2c1 (stereo not shown) [Example 189]	0.1 to 1
0.01 to 0.1	0.01 to 0.1	0.01 to 0.1	0.01 to 0.1	–	–	COCCCc1ccc2c(Nc3ccc(NC(=O)NCCC(C)(C)F)cc3)cnnc2c1 [Example 190, 1-(3-fluoro-3-methylbutyl)-3-(4-((7-(3-methoxypropyl)cinnolin-4-yl)amino)phenyl)urea]	0.01 to 0.1
0.01 to 0.1	0.1 to 1	0.1 to 1	0.1 to 1	–	–	COCCOc1cc(F)c2c(Nc3ccc(NC(=O)CC(=O)N4CC[C@H](C)C4)cc3)ncnc2c1 [Example 191]	0.1 to 1
0.01 to 0.1	0.01 to 0.1	0.1 to 1	0.01 to 0.1	–	–	COCCOc1cc(OC)c2c(Nc3ccc(NC(=O)CC(=O)N(C)C(C)(C)C)cc3)ncnc2c1 [Example 192]	0.01 to 0.1
≤ 0.01	0.01 to 0.1	0.01 to 0.1	0.01 to 0.1	–	–	CC(C)(F)CCNC(=O)Nc1ccc(Nc2ncnc3cc(OCCCN4CCOCC4)cc(F)c23)cc1 [Example 195]	≤ 0.01
0.01 to 0.1	0.01 to 0.1	0.1 to 1	0.1 to 1	–	–	COCCOc1cc(F)c2c(Nc3ccc(NC(=O)CC(=O)N4CCC[C@@H]4C)cc3)ncnc2c1 [Example 196]	0.01 to 0.1
0.01 to 0.1	0.01 to 0.1	0.1 to 1	0.1 to 1	–	–	COCCOc1cc(F)c2c(Nc3ccc(NC(=O)CC(=O)N4CCC[C@H]4C)cc3)ncnc2c1 [Example 197]	0.01 to 0.1
0.01 to 0.1	0.01 to 0.1	0.1 to 1	0.1 to 1	–	–	COCCOc1cc(F)c2c(Nc3ccc(NC(=O)CC(=O)N4CC[C@@H](C)C4)cc3)ncnc2c1 [Example 198]	0.01 to 0.1

SMILES	IC50 (c-KIT kinase (uKIT)) [µM]	IC50 (Ba/F3 KIT mutant cells; [1]) [µM]	IC50 (Ba/F3 KIT mutant cells; [2]) [µM]	IC50 (Ba/F3 KIT mutant cells; [3]) [µM]	IC50 (Ba/F3 KIT mutant cells; Ba/F3 KIT AYdup mutant cell proliferation, read-out: AYdup IC50) [µM]	IC50 (Ba/F3 KIT mutant cells; Ba/F3 KIT AYdup-D816G mutant cell proliferation, read-out: AYdup-D816G IC50) [µM]	IC50 (GIST 430 cells) [µM]
COCCOc1cc(F)c2c(Nc3ccc(NC(=O)CC(=O)N4C5CCC4CC5)cc3)ncnc2c1 [Example 188]	0.01 to 0.1	0.1 to 1	0.1 to 1	0.1 to 1	–	–	0.1 to 1
